Results on 14 compounds are retold here after US10611740B2, “Aryl dihydro-2H-benzo[b][1,4]oxazine sulfonamide and related compounds for use as agonists of RORγ and the treatment of disease” (Lycera Corporation, priority 2015, dated 2020).

A value given as a limit tells only on which side of the number the result lay.

Assay [1] deals with T1, Gal4-RORγ-LBD (Homo sapiens, UniProt P51449).
T1 construct: expressed in transfected cells; host or cells: HEK-293 cells (pcDNA3.1neo plasmid)
T1 sequence (P51449 269-508 limits assumed): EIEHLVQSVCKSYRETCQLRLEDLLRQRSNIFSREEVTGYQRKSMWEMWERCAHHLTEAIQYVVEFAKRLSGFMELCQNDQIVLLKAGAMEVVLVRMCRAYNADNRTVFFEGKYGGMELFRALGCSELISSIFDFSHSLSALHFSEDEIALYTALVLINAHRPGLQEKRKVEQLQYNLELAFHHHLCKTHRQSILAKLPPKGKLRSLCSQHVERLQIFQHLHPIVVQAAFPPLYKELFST
As to the kind of experiment: Gal4-RORγ Luciferase Reporter Assay in HEK-293T Cells. Format: cell-based. To be noted: HEK-293 cells. The essentials: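 HEK-293 cells were transiently co-transfected with Gal4-RORγ-LBD and pGL4.31 Gal4-luciferase, with ursolic acid added at 2 μM final. Compounds were incubated overnight at 37° C. in 0.2% DMSO and luminescence read with One-Glo. Max Response is the upper plateau of a 4-parameter logistic fit, with signal lacking ursolic acid or compound set to 100.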

For assay [2], the target named is T2, RORγ-LBD (Homo sapiens, UniProt P51449).
T2 construct: made in house; host or cells: SF9 cells (baculovirus)
T2 sequence (P51449 269-508 limits assumed): T1 sequence (P51449 269-508 limits assumed)
As to the kind of experiment: RORγ-Ligand Binding Domain (LBD) TR-FRET Assay.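 On TR-FRET Assay Max Response: 665/615 nm ratio relative to signal without ursolic acid or compound set at 100.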 Format: biochemical. A digest of the protocol:
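Compounds, diluted in DMSO and then in assay buffer (1% DMSO final), were combined with His-tagged RORγ-LBD lysate at roughly 3 nM final and a 200 nM biotinylated SRC1 LXXLL peptide. Ursolic acid was included at 2 μM final. Coactivator recruitment was detected by TR-FRET.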
(In general: Time-resolved FRET reads energy transfer from a long-lived donor to a nearby acceptor.)

[3] abbreviates: luciferase reporter, with 2 μM ursolic acid.

Take `Cn1cc(C(=O)NC[C@H]2CN(S(=O)(=O)c3cccc(C(F)(F)F)c3)c3cc(-c4cccc(C(F)(F)F)n4)ccc3O2)c(C(F)(F)F)n1` [Compound 30BN, (S)-1-methyl-3-(trifluoro-methyl)-N-((4-((3-(trifluoro-methyl)phenyl)sulfonyl)-6-(6-(trifluoromethyl)pyridin-2-yl)-3,4-dihydro-2H-benzo[b][1,4]-oxazin-2-yl)methyl)-1H-pyrazole-4-carboxamide]: in assay [1] (2 μM ursolic acid), the EC50 (in general, the concentration giving half of the maximal effect) is > 10000 nM and the “Gal4-RORγ Assay Max Response” value was “* (The symbol “*” indicates a value in the range of 25 to 90)”. In assay [2], the EC50 was in the range of 500 to 5000 nM and the “TR-FRET Assay Max Response” value is given as “*** (The symbol “***” indicates a value in the range of greater than 150 to 200)”.
Consider `CC(C)(O)CC[C@H]1CN(S(=O)(=O)c2cccc(C(F)(F)F)c2)c2cc(-c3cc(F)ccc3F)ccc2O1` [Compound 10, (S)-4-(6-(2,5-difluorophenyl)-4-((3-(trifluoromethyl)phenyl)sulfonyl)-3,4-dihydro-2H-benzo[b][1,4]oxazin-2-yl)-2-methylbutan-2-ol], for which, in assay [1] (setting [3]), the EC50 is < 500 nM and the “Gal4-RORγ Assay Max Response” value is given as “** (The symbol “**” indicates a value in the range of greater than 90 to 150)”. In assay [2], the EC50 is < 500 nM and the “TR-FRET Assay Max Response” value was “**** (The symbol “****” indicates a value greater than 200)”.
On to `CC(C)c1ccccc1-c1ccc2c(c1)N(S(=O)(=O)c1cccc(C(F)(F)F)c1)C[C@H](CCC(=O)O)O2` [Compound 2AJ, (S)-3-(6-(2-isopropylphenyl)-4-((3-(trifluoromethyl)phenyl)-sulfonyl)-3,4-dihydro-2H-benzo[b][1,4]oxazin-2-yl)propanoic acid], for which, in assay [1] (setting [3]), the EC50 was < 500 nM and the “Gal4-RORγ Assay Max Response” value is listed as “** (The symbol “**” indicates a value in the range of greater than 90 to 150)”. For the same compound, in assay [2], the EC50 is < 500 nM and the “TR-FRET Assay Max Response” value is reported as “**** (The symbol “****” indicates a value greater than 200)”.
As to `COc1cc(-c2ccc3c(c2)N(S(=O)(=O)c2cccc(C(F)(F)F)c2)C[C@H](CCc2n[nH]c(=O)o2)O3)nc(N(C)C)c1` [Compound 28H, (S)-5-(2-(6-(6-(dimethylamino)-4-methoxypyridin-2-yl)-4-((3-(trifluoromethyl)phenyl)sulfonyl)-3,4-dihydro-2H-benzo[b][1,4]-oxazin-2-yl)ethyl)-1,3,4-oxadiazol-2(3H)-one], in assay [1] (setting [3]), the EC50 is < 500 nM and the “Gal4-RORγ Assay Max Response” value was “* (The symbol “*” indicates a value in the range of 25 to 90)”. For the same compound, in assay [2], the EC50 is < 500 nM and the “TR-FRET Assay Max Response” value is on record as “**** (The symbol “****” indicates a value greater than 200)”.
Turning to `O=C(NC[C@H]1CN(S(=O)(=O)c2cccc(C(F)(F)F)c2)c2cc(-c3cc(F)ccc3F)ccc2O1)[C@H]1C[C@H]1F` [Compound 30AN, (1R,2R)-N-(((S)-6-(2,5-difluoro-phenyl)-4-((3-(trifluoromethyl)-phenyl)sulfonyl)-3,4-dihydro-2H-benzo[b][1,4]oxazin-2-yl)methyl)-2-fluorocyclo-propane-1-carboxamide], in assay [1] (setting [3]), the EC50 is < 500 nM and the “Gal4-RORγ Assay Max Response” value was “** (The symbol “**” indicates a value in the range of greater than 90 to 150)”. For the same compound, in assay [2], the EC50 is < 500 nM and the “TR-FRET Assay Max Response” value is listed as “**** (The symbol “****” indicates a value greater than 200)”.
Regarding `CC(C)(O)C(=O)NCC[C@H]1CN(S(=O)(=O)c2cccc(OC(F)F)c2)c2cc(-c3cc(F)ccc3F)ccc2O1` [Compound 30P, (S)-N-(2-(4-((3-(difluoro-methoxy)phenyl)sulfonyl)-6-(2,5-difluorophenyl)-3,4-dihydro-2H-benzo[b][1,4]oxazin-2-yl)ethyl)-2-hydroxy-2-methylpropanamide], in assay [1] (setting [3]), the EC50 was < 500 nM and the “Gal4-RORγ Assay Max Response” value was “** (The symbol “**” indicates a value in the range of greater than 90 to 150)”. For the same compound, in assay [2], the EC50 was < 500 nM and the “TR-FRET Assay Max Response” value is “**** (The symbol “****” indicates a value greater than 200)”.
As for `O=C(CC[C@H]1CN(S(=O)(=O)c2cccc(C(F)(F)F)c2)c2cc(-c3ccc(F)cc3F)ccc2O1)NS(=O)(=O)C1CC1` [Compound 43B, (S)-N-(cyclopropylsulfonyl)-3-(6-(2,4-difluorophenyl)-4-((3-(trifluoromethyl)phenyl)-sulfonyl)-3,4-dihydro-2H-benzo[b][1,4]oxazin-2-yl)propanamide], in assay [1] (setting [3]), the EC50 lay in the range of 500 to 5000 nM and the “Gal4-RORγ Assay Max Response” value is recorded as “** (The symbol “**” indicates a value in the range of greater than 90 to 150)”. Moreover, in assay [2], the EC50 was < 500 nM and the “TR-FRET Assay Max Response” value is “**** (The symbol “****” indicates a value greater than 200)”.
Take `O=C(O)CC[C@H]1CN(S(=O)(=O)c2cccc(C(F)(F)F)c2)c2cc(-c3cccc(C(F)(F)F)c3F)ccc2O1` [Compound 2N, (S)-3-(6-(2-fluoro-3-(trifluoromethyl)phenyl)-4-((3-(trifluoromethyl)phenyl)-sulfonyl)-3,4-dihydro-2H-benzo[b][1,4]oxazin-2-yl)propanoic acid]: in assay [1] (setting [3]), the EC50 was < 500 nM and the “Gal4-RORγ Assay Max Response” value is listed as “*** (The symbol “***” indicates a value in the range of greater than 150 to 200)”. Also, in assay [2], the EC50 is < 500 nM and the “TR-FRET Assay Max Response” value is reported as “*** (The symbol “***” indicates a value in the range of greater than 150 to 200)”.
For `CN(C)c1cncc(-c2ccc3c(c2)N(S(=O)(=O)c2cccc(C(F)(F)F)c2)C[C@H](CCC(=O)O)O3)n1` [Compound 4AL, (S)-3-(6-(6-(dimethylamino)-pyrazin-2-yl)-4-((3-(trifluoromethyl)phenyl)-sulfonyl)-3,4-dihydro-2H-benzo[b][1,4]oxazin-2-yl)propanoic acid], in assay [1] (setting [3]), the EC50 was < 500 nM and the “Gal4-RORγ Assay Max Response” value was “** (The symbol “**” indicates a value in the range of greater than 90 to 150)”. In assay [2], the concentration for a half-maximal effect (EC50) is < 500 nM and the “TR-FRET Assay Max Response” value is on record as “**** (The symbol “****” indicates a value greater than 200)”.
As for `O=C(CC[C@H]1CN(S(=O)(=O)c2cccc(C(F)(F)F)c2)c2cc(-c3cc(F)ccc3F)ccc2O1)NC[C@H](O)C(=O)O` [Compound 23S, (S)-3-(3-((S)-6-(2,5-difluoro-phenyl)-4-((3-(trifluoromethyl)-phenyl)sulfonyl)-3,4-dihydro-2H-benzo[b][1,4]oxazin-2-yl)propanamido)-2-hydroxypropanoic acid], in assay [1] (setting [3]), the EC50 fell in the range of 500 to 5000 nM and the “Gal4-RORγ Assay Max Response” value is given as “** (The symbol “**” indicates a value in the range of greater than 90 to 150)”. Further, in assay [2], the EC50 is < 500 nM and the “TR-FRET Assay Max Response” value is reported as “**** (The symbol “****” indicates a value greater than 200)”.
In the same order, the values of `Cc1ncccc1-c1ccc2c(c1)N(S(=O)(=O)c1cccc(C(F)(F)F)c1)C[C@H](CCC(=O)O)O2` [Compound 4AE, (S)-3-(6-(2-methylpyridin-3-yl)-4-((3-(trifluoromethyl)-phenyl)sulfonyl)-3,4-dihydro-2H-benzo[b][1,4]oxazin-2-yl)propanoic acid] are 500 to 5000 nM, “** (The symbol “**” indicates a value in the range of greater than 90 to 150)”, < 500 nM and “**** (The symbol “****” indicates a value greater than 200)”.
Regarding `COc1cc(F)c(F)c(-c2ccc3c(c2)N(S(=O)(=O)c2cccc(C(F)(F)F)c2)C[C@H](CCC(=O)O)O3)c1` [Compound 4AR, (S)-3-(6-(2,3-difluoro-5-methoxyphenyl)-4-((3-(trifluoromethyl)phenyl)sul-fonyl)-3,4-dihydro-2H-benzo[b][1,4]oxazin-2-yl)propanoic acid], in assay [1] (setting [3]), the EC50 is < 500 nM and the “Gal4-RORγ Assay Max Response” value is reported as “** (The symbol “**” indicates a value in the range of greater than 90 to 150)”. For the same compound, in assay [2], the EC50 is < 500 nM and the “TR-FRET Assay Max Response” value is listed as “**** (The symbol “****” indicates a value greater than 200)”.
Consider `CC(C)(O)C(=O)NCC[C@H]1CN(S(=O)(=O)c2cccc(C(F)(F)F)c2)c2cc(-c3cncc(C(F)(F)F)c3)ccc2O1` [Compound 30C, (S)-2-hydroxy-2-methyl-N-(2-(4-((3-(trifluoromethyl)-phenyl)sulfonyl)-6-(5-(trifluoromethyl)pyridin-3-yl)-3,4-dihydro-2H-benzo[b][1,4]oxazin-2-yl)ethyl)propanamide], for which, in assay [1] (setting [3]), the 50% effective concentration (EC50) is < 500 nM and the “Gal4-RORγ Assay Max Response” value was “* (The symbol “*” indicates a value in the range of 25 to 90)”. Further, in assay [2], the concentration giving a half-maximal response (EC50) was < 500 nM and the “TR-FRET Assay Max Response” value was “**** (The symbol “****” indicates a value greater than 200)”.
Take `Cc1ccc(F)c(-c2ccc3c(c2)N(S(=O)(=O)c2cccc(C(F)(F)F)c2)C[C@H](CCC(=O)O)O3)c1` [Compound 2BL, (S)-3-(6-(2-fluoro-5-methyl-phenyl)-4-((3-(trifluoromethyl)-phenyl)sulfonyl)-3,4-dihydro-2H-benzo[b][1,4]oxazin-2-yl)propanoic acid]: in assay [1] (setting [3]), the EC50 is < 500 nM and the “Gal4-RORγ Assay Max Response” value is listed as “** (The symbol “**” indicates a value in the range of greater than 90 to 150)”. For the same compound, in assay [2], the EC50 was < 500 nM and the “TR-FRET Assay Max Response” value was “*** (The symbol “***” indicates a value in the range of greater than 150 to 200)”.
